Measurements from ChEMBL document CHEMBL1201862, “PubChem BioAssay data set” (2004).
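Each compound was tested at five concentrations against cells in 96-well plates for 48 hours. The concentration for 50% growth inhibition is given as GI50.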 Activity calls are given as the source filed them. Rule as the data show it: active = GI50 up to about 1.1 µM and inactive = higher. Square brackets hold non-standard residues; d marks the D form. Peptide text beside a SMILES is read from it. * marks the point of attachment. ξ: configuration not given here. ξD = NC(CC(=O)O)C(=O)O; Ac3c = NC1(C(=O)O)CC1; Boc = CC(C)(C)OC(=O)*; OtBu = CC(C)(C)O*

Columns and labels:
Experiment in all cases: NCI-60 cell line screen, 48 h
NCI-H226 = tested on: NCI-H226
ACHN = tested on: ACHN
SF-268 = tested on: SF-268
Hs-578T = tested on: Hs-578T
PC-3 = tested on: PC-3
SF-295 = tested on: SF-295
UO-31 = tested on: UO-31
DU-145 = tested on: DU-145
MDA-MB-435 = tested on: MDA-MB-435
UACC-257 = tested on: UACC-257
NCI-H23 = tested on: NCI-H23
MCF7 = tested on: MCF7
MDA-N = tested on: MDA-N
NCI-H522 = tested on: NCI-H522
MDA-MB-231 = tested on: MDA-MB-231
KM12 = tested on: KM12
CCRF-CEM = tested on: CCRF-CEM
HCT-15 = tested on: HCT-15
A498 = tested on: A498
HL-60 = tested on: HL-60

Structure (SMILES) | GI50 (NCI-H226) | GI50 (ACHN) | GI50 (SF-268) | GI50 (Hs-578T) | GI50 (PC-3) | GI50 (SF-295) | GI50 (UO-31) | GI50 (DU-145) | GI50 (MDA-MB-435) | GI50 (UACC-257) | GI50 (NCI-H23) | GI50 (MCF7) | GI50 (MDA-N) | GI50 (NCI-H522) | GI50 (MDA-MB-231) | GI50 (KM12) | GI50 (CCRF-CEM) | GI50 (HCT-15) [µM] | GI50 (A498) | GI50 (HL-60)
CCCCCCCCCCCCCCCCCCNc1ccn(C2OC(COP(=O)(O)OCC3OC(n4cc(C)c(=O)[nH]c4=O)CC3N=[N+]=[N-])C(O)C2O)c(=O)n1 (stereo not given) | 22.8 µM (inactive) | 54 µM (inactive) | 19.2 µM (inactive) | 23 µM (inactive) | 8.81 µM (inactive) | 18.3 µM (inactive) | 21 µM (inactive) | 95.5 µM (inactive) | 23.8 µM (inactive) | 25.4 µM (inactive) | 19.5 µM (inactive) | 37 µM (inactive) | 43.7 µM (inactive) | 13.3 µM (inactive) | 22.1 µM (inactive) | 20.3 µM (inactive) | 15.5 µM (inactive) | 18.8 | – | –
COc1ccc2oc(=O)c(-c3nc4ccccc4s3)cc2c1 | 19.2 µM (inactive) | 5.55 µM (inactive) | 34 µM (inactive) | 23.2 µM (inactive) | 63.8 µM (inactive) | 21.5 µM (inactive) | 13.9 µM (inactive) | 21.8 µM (inactive) | 12 µM (inactive) | > 85.1 µM (inactive) | 27.5 µM (inactive) | – | 20.1 µM (inactive) | 29.4 µM (inactive) | 18.7 µM (inactive) | > 55.3 µM (inactive) | > 38.5 µM (inactive) | > 79.6 | 20.8 µM (inactive) | > 100 µM (inactive)
OC1CC(O)c2c(Cl)sc(Cl)c21 (stereo not given) | 26.3 µM (inactive) | 33.2 µM (inactive) | > 100 µM (inactive) | 36 µM (inactive) | – | 8.41 µM (inactive) | 28.2 µM (inactive) | 43.4 µM (inactive) | 32 µM (inactive) | 24.8 µM (inactive) | 21.2 µM (inactive) | 31.1 µM (inactive) | > 100 µM (inactive) | 23 µM (inactive) | 32.1 µM (inactive) | 27 µM (inactive) | 46.1 µM (inactive) | 60.5 | > 100 µM (inactive) | 30.5 µM (inactive)
O=C(c1ccco1)C1CC(c2ccc3ccccc3c2O)=NN1c1ccc([N+](=O)[O-])cc1[N+](=O)[O-] (stereo not given) | 20.6 µM (inactive) | 20.5 µM (inactive) | 19.4 µM (inactive) | 15.7 µM (inactive) | 16.4 µM (inactive) | 18.1 µM (inactive) | 16.6 µM (inactive) | 37.6 µM (inactive) | 28.9 µM (inactive) | 28.6 µM (inactive) | 22.7 µM (inactive) | 12.8 µM (inactive) | 28.6 µM (inactive) | 7.98 µM (inactive) | 20.7 µM (inactive) | 3.95 µM (inactive) | 2.29 µM (inactive) | 17.9 | 23.7 µM (inactive) | –
CC[C@H](NC(=O)OC(C)(C)C)C(=O)NCP(=O)(OCc1ccc([N+](=O)[O-])cc1)OCc1ccc([N+](=O)[O-])cc1 | 39.4 µM (inactive) | 23 µM (inactive) | 40.6 µM (inactive) | 37.2 µM (inactive) | 34.8 µM (inactive) | 13.7 µM (inactive) | 14.8 µM (inactive) | 31.6 µM (inactive) | 34.9 µM (inactive) | 11.9 µM (inactive) | 41.3 µM (inactive) | 48.9 µM (inactive) | 28.6 µM (inactive) | 31.6 µM (inactive) | 26.4 µM (inactive) | 26.8 µM (inactive) | 21.6 µM (inactive) | 26.9 | – | 18.2 µM (inactive)
COC(=O)C1(NC(=O)C(CC(=O)OC(C)(C)C)NC(=O)OC(C)(C)C)CC1 (stereo not given) (Boc-[ξD](OtBu)-[Ac3c]-OMe) | > 100 µM (inactive) | > 100 µM (inactive) | > 100 µM (inactive) | > 100 µM (inactive) | > 100 µM (inactive) | > 100 µM (inactive) | > 100 µM (inactive) | > 100 µM (inactive) | > 100 µM (inactive) | > 100 µM (inactive) | > 100 µM (inactive) | > 100 µM (inactive) | > 100 µM (inactive) | > 100 µM (inactive) | > 100 µM (inactive) | > 100 µM (inactive) | > 100 µM (inactive) | > 100 | > 100 µM (inactive) | –
CC(=O)NC1C(OCc2ccccc2)OC(CO)C(O)C1OCC(=O)N[C@@H](C)C(=O)N[C@H](CCC(=O)NCCCNc1ccc([N+](=O)[O-])c2[nH]c3ccccc3c(=O)c12)C(N)=O (stereo not given in full) | 25.5 µM (inactive) | 50.8 µM (inactive) | – | 26.2 µM (inactive) | > 100 µM (inactive) | 56.6 µM (inactive) | > 100 µM (inactive) | 60.8 µM (inactive) | > 100 µM (inactive) | 54 µM (inactive) | > 100 µM (inactive) | – | > 100 µM (inactive) | 29.3 µM (inactive) | > 100 µM (inactive) | 93.5 µM (inactive) | > 100 µM (inactive) | 94.2 | > 100 µM (inactive) | > 100 µM (inactive)
COP(=O)(C(/C=C/c1ccccc1)OC(C)=O)[C@@H]1CCCC[C@H]1N(CC(C)(C)C)C(C)=O (stereo not given in full) | 12 µM (inactive) | 16.3 µM (inactive) | 16.6 µM (inactive) | 12.8 µM (inactive) | 14 µM (inactive) | 16.3 µM (inactive) | 13.9 µM (inactive) | 15 µM (inactive) | 14.5 µM (inactive) | 14.3 µM (inactive) | 15.8 µM (inactive) | 22.5 µM (inactive) | 15.6 µM (inactive) | 12.1 µM (inactive) | 14.8 µM (inactive) | 26.2 µM (inactive) | 14.5 µM (inactive) | 15.9 | – | 14.6 µM (inactive)
COc1ccc(-c2c(C(=O)Nc3ccccc3)c(-c3ccccc3)n(C3OC(CO)C(O)C(O)C3O)c(=S)c2C#N)cc1 (stereo not given) | > 100 µM (inactive) | > 100 µM (inactive) | > 100 µM (inactive) | > 100 µM (inactive) | > 100 µM (inactive) | > 100 µM (inactive) | > 100 µM (inactive) | > 100 µM (inactive) | > 100 µM (inactive) | > 100 µM (inactive) | > 100 µM (inactive) | > 100 µM (inactive) | > 100 µM (inactive) | > 100 µM (inactive) | – | > 100 µM (inactive) | > 100 µM (inactive) | > 100 | > 100 µM (inactive) | > 100 µM (inactive)
O=[N+]([O-])/C(C(Cl)=C(Cl)Cl)=C(/Nc1cccc2cccnc12)n1nnc2ccccc21 | 23.2 µM (inactive) | 19.7 µM (inactive) | 16.5 µM (inactive) | 11.9 µM (inactive) | 19.2 µM (inactive) | 17.9 µM (inactive) | 15.8 µM (inactive) | – | 15.9 µM (inactive) | 30.3 µM (inactive) | 15.5 µM (inactive) | 19.6 µM (inactive) | 13.9 µM (inactive) | – | – | 16 µM (inactive) | 2.88 µM (inactive) | 10.8 | – | –
Cn1c2ccccc2c2c3c(c4c5ccccc5n(C5OC(CO)C(O)C(O)C5O)c4c21)C(=O)OC3=O (stereo not given) | > 100 µM (inactive) | > 100 µM (inactive) | > 100 µM (inactive) | > 100 µM (inactive) | > 100 µM (inactive) | > 100 µM (inactive) | > 100 µM (inactive) | > 100 µM (inactive) | > 100 µM (inactive) | > 100 µM (inactive) | > 100 µM (inactive) | > 100 µM (inactive) | > 100 µM (inactive) | > 100 µM (inactive) | > 100 µM (inactive) | > 100 µM (inactive) | > 100 µM (inactive) | > 100 | > 100 µM (inactive) | –
NC1=Nc2ccccc2Sc2nc3ccccc3n21 | 10.4 µM (inactive) | 29.7 µM (inactive) | 18.4 µM (inactive) | 55.7 µM (inactive) | 9.62 µM (inactive) | 43.3 µM (inactive) | 7.5 µM (inactive) | 39.6 µM (inactive) | – | 26.1 µM (inactive) | 25.5 µM (inactive) | 5.53 µM (inactive) | 5.13 µM (inactive) | 13.9 µM (inactive) | 19.1 µM (inactive) | 27.2 µM (inactive) | 3.33 µM (inactive) | 35.5 | – | 2.4 µM (inactive)
CC(=O)N1N=C(c2ccc3ccccc3c2O)CC1c1ccc(Cl)cc1Cl (stereo not given) | 44.6 µM (inactive) | 29.6 µM (inactive) | 26.9 µM (inactive) | 39.1 µM (inactive) | 17.1 µM (inactive) | 31.6 µM (inactive) | > 100 µM (inactive) | > 100 µM (inactive) | 25.4 µM (inactive) | 44.2 µM (inactive) | > 100 µM (inactive) | 13.2 µM (inactive) | 24.4 µM (inactive) | 25.7 µM (inactive) | 26.7 µM (inactive) | 46.2 µM (inactive) | 3.91 µM (inactive) | 56.9 | 27.9 µM (inactive) | –
COc1cc(OCc2ccc3oc(=O)c(-c4ccccc4)nc3c2)cc(OC)c1OC | > 100 µM (inactive) | > 100 µM (inactive) | > 100 µM (inactive) | > 100 µM (inactive) | > 100 µM (inactive) | > 100 µM (inactive) | > 100 µM (inactive) | > 100 µM (inactive) | > 100 µM (inactive) | > 100 µM (inactive) | > 100 µM (inactive) | > 100 µM (inactive) | > 100 µM (inactive) | > 100 µM (inactive) | > 100 µM (inactive) | – | > 100 µM (inactive) | > 100 | > 100 µM (inactive) | –
COC(=O)Cc1c([C@@H]2Nc3ccccc3[C@H]2CC(=O)OC)[nH]c2ccccc12 | 71.8 µM (inactive) | 36.6 µM (inactive) | 31.1 µM (inactive) | 41.3 µM (inactive) | 11.1 µM (inactive) | 22.8 µM (inactive) | 16.6 µM (inactive) | 59.4 µM (inactive) | 26.1 µM (inactive) | 24.9 µM (inactive) | 27 µM (inactive) | 25.4 µM (inactive) | 28.7 µM (inactive) | – | 18.5 µM (inactive) | – | 20.7 µM (inactive) | 5.02 | 34.7 µM (inactive) | –
